This is an account of results in ChEMBL document CHEMBL1201862, “PubChem BioAssay data set” (2004).

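Cultured in 96-well plates, cells were exposed to test compound for 48 hours across five concentrations. At the GI50, growth is halved.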 Activity calls are given as the source filed them. Cut-off read from the data, not from the text of the source: active = GI50 up to about 1.1 µM and inactive = higher.

Among the test systems are 786-0; A498; A549; HCC 2998; HCT-15; HOP-92; K562; M14; MDA-MB-231; MDA-N; NCI-H23; NCI/ADR-RES; OVCAR-5; OVCAR-8; SF-295; SK-MEL-28; SNB-19; SNB-75; UACC-257; SK-MEL-2.
What all share (experiment): inhibition of tumour cell growth, NCI panel, 48 h

With `CCOP(=O)(OCC)/C(C#N)=C/c1ccccn1`, the GI50 with 786-0 was > 100 µM (inactive); with A498, > 100 µM (inactive); with A549, > 100 µM (inactive); with HCC 2998 it was > 100 µM (inactive); in the experiment on HCT-15 it was over 100 µM; in the experiment with HOP-92, > 100 µM (inactive). For the same molecule, the GI50 in the experiment with K562, in the experiment on M14, in the experiment on MDA-MB-231, in the experiment on MDA-N, in the experiment on NCI-H23 and in the experiment on NCI/ADR-RES was > 100 µM (inactive) each time. The GI50 in the experiment on OVCAR-5, in the experiment on OVCAR-8, with SF-295, in the experiment with SK-MEL-28, with SNB-19 and in the experiment with SNB-75 was > 100 µM (inactive) in each case. In the experiment with UACC-257, the GI50 was > 100 µM (inactive).
With `Cc1ccc(S(=O)(=O)N2CCN(S(=O)(=O)c3ccc(C)cc3)CCN(S(=O)(=O)c3ccc(C)cc3)Cc3cc(C#N)c(C#N)cc3CN(S(=O)(=O)c3ccc(C)cc3)CC2)cc1`, the GI50 was > 100 µM (inactive) in the experiment on 786-0; 20.7 µM (inactive) in the experiment on A498; > 100 µM (inactive) with A549; > 100 µM (inactive) with HCC 2998; over 100 µM with HCT-15; 25.3 µM (inactive) with HOP-92. For the same molecule, the GI50 in the experiment on K562 is > 100 µM (inactive); in the experiment with M14, 25.8 µM (inactive); in the experiment on MDA-MB-231, 31 µM (inactive); in the experiment with MDA-N, 95.7 µM (inactive); in the experiment with NCI-H23, > 100 µM (inactive); with NCI/ADR-RES, > 100 µM (inactive). Further, the GI50 was > 100 µM (inactive) in the experiment on OVCAR-5; > 100 µM (inactive) in the experiment on OVCAR-8; > 100 µM (inactive) in the experiment with SF-295; > 100 µM (inactive) with SK-MEL-28; 51.1 µM (inactive) in the experiment with SNB-19; 19.1 µM (inactive) in the experiment with SNB-75. For the same molecule, in the experiment on UACC-257, the GI50 is > 100 µM (inactive).
Turning to `C[n+]1c(/C=C/c2ccc(O)c3ncccc23)[se]c2ccccc21`, the GI50 in the experiment with 786-0 was 2.99 µM (inactive); in the experiment with A498, 11.2 µM (inactive); in the experiment with A549 it was 7.06 µM (inactive); with HCT-15, 0.631 µM; in the experiment on HOP-92, 4.22 µM (inactive); with K562 it was 5.11 µM (inactive). Moreover, the GI50 in the experiment with M14 is 4.67 µM (inactive); in the experiment on MDA-MB-231, 0.406 µM (active); in the experiment on MDA-N, 5.98 µM (inactive); in the experiment on NCI-H23, 4.05 µM (inactive); in the experiment with NCI/ADR-RES it was 3.48 µM (inactive); with OVCAR-5, 9.86 µM (inactive). The GI50 with OVCAR-8 is 2.87 µM (inactive); in the experiment on SF-295, 8.57 µM (inactive); with SK-MEL-28 it was 11.4 µM (inactive); with SK-MEL-2, 4.26 µM (inactive); with SNB-19, 4.5 µM (inactive); with SNB-75, 12.1 µM (inactive). Also, the GI50 in the experiment with UACC-257 is 2.29 µM (inactive).
For the molecule `Cc1cn(CCC(N)C(=O)O)c(=O)[nH]c1=O` (configuration not stated), the GI50 in the experiment on 786-0 was > 100 µM (inactive); in the experiment on A498, > 100 µM (inactive); in the experiment on A549, > 100 µM (inactive); in the experiment with HCT-15, over 100 µM; in the experiment with HOP-92, > 100 µM (inactive); in the experiment on K562, > 100 µM (inactive). The GI50 with M14, in the experiment with MDA-MB-231, in the experiment on MDA-N, in the experiment on NCI-H23, in the experiment on NCI/ADR-RES and in the experiment on OVCAR-5 was > 100 µM (inactive) each time. Besides, the GI50 in the experiment on OVCAR-8, in the experiment with SF-295, in the experiment with SK-MEL-28, in the experiment on SK-MEL-2, in the experiment with SNB-19 and in the experiment with SNB-75 was > 100 µM (inactive) in each case. For the same molecule, the GI50 with UACC-257 is > 100 µM (inactive).
In the case of `CCOC(=O)C1=COC(C)(c2ccccc2)CC1=O` (configuration not stated), the GI50 is > 100 µM (inactive) with 786-0; > 100 µM (inactive) in the experiment with A498; > 100 µM (inactive) in the experiment on A549; > 100 µM (inactive) in the experiment with HCC 2998; over 100 µM in the experiment on HCT-15; > 100 µM (inactive) in the experiment with K562. The GI50 in the experiment with M14, in the experiment on MDA-MB-231, in the experiment with MDA-N, in the experiment with NCI-H23, with NCI/ADR-RES and in the experiment on OVCAR-5 was > 100 µM (inactive) throughout. For the same molecule, the GI50 in the experiment on OVCAR-8, in the experiment on SF-295, with SK-MEL-28, in the experiment with SK-MEL-2, in the experiment with SNB-19 and with SNB-75 was > 100 µM (inactive) throughout. For the same molecule, in the experiment with UACC-257, the GI50 was > 100 µM (inactive).
For the molecule `Cn1c(=O)c2c(ncn2CCSS(=O)(=O)O)n(C)c1=O`, the GI50 was > 100 µM (inactive) with 786-0; > 100 µM (inactive) with A498; > 100 µM (inactive) with A549; over 100 µM with HCT-15; > 100 µM (inactive) in the experiment on HOP-92; > 100 µM (inactive) in the experiment on K562. The GI50 was 72.3 µM (inactive) in the experiment on M14; 45.9 µM (inactive) in the experiment with MDA-MB-231; > 100 µM (inactive) in the experiment with MDA-N; > 100 µM (inactive) in the experiment with NCI-H23; > 100 µM (inactive) with NCI/ADR-RES; > 100 µM (inactive) with OVCAR-5. Besides, the GI50 with OVCAR-8 was > 100 µM (inactive); in the experiment on SF-295, > 100 µM (inactive); with SK-MEL-28, > 100 µM (inactive); with SK-MEL-2, 55.3 µM (inactive); in the experiment on SNB-19, > 100 µM (inactive); in the experiment on SNB-75 it was 38.5 µM (inactive). In addition, the GI50 in the experiment on UACC-257 is > 100 µM (inactive).
With `CC(C)(C)C1CCC2c3c([nH]c4ccccc34)C3C(=O)N(c4ccc(C#N)cc4)C(=O)C3C2C1` (configuration not stated), the GI50 is 12 µM (inactive) in the experiment with 786-0; 13.7 µM (inactive) in the experiment with A498; 8.43 µM (inactive) in the experiment with A549; 3.25 µM (inactive) in the experiment on HCC 2998; 12.1 µM with HCT-15; 4.54 µM (inactive) with HOP-92. The GI50 is 6.22 µM (inactive) in the experiment with K562; 16.1 µM (inactive) in the experiment with M14; 15.3 µM (inactive) with MDA-MB-231; 11.9 µM (inactive) with MDA-N; 6.61 µM (inactive) with NCI-H23; 17.6 µM (inactive) with NCI/ADR-RES. In addition, the GI50 was 20.7 µM (inactive) in the experiment with OVCAR-5; 14.5 µM (inactive) in the experiment with OVCAR-8; 29.2 µM (inactive) in the experiment with SF-295; 14 µM (inactive) in the experiment on SK-MEL-28; 13.1 µM (inactive) with SK-MEL-2; 34.4 µM (inactive) in the experiment with SNB-19. Moreover, the GI50 in the experiment with UACC-257 was 20.2 µM (inactive).
For `Cc1nn(-c2ccccc2)c(C)c1/C=N/NC(=O)c1sc(=S)n(-c2ccccc2)c1N`, the GI50 was 3.78 µM (inactive) with 786-0; 3.63 µM (inactive) with A498; 3.9 µM (inactive) with A549; 4.61 µM (inactive) with HCC 2998; 4.89 µM with HCT-15; 0.681 µM (active) with K562. The GI50 in the experiment with M14 was 4.92 µM (inactive); with MDA-MB-231 it was 2.18 µM (inactive); in the experiment with MDA-N, 4.19 µM (inactive); in the experiment with NCI-H23, 6.81 µM (inactive); in the experiment on NCI/ADR-RES it was 3.62 µM (inactive); in the experiment with OVCAR-5 it was 5.52 µM (inactive). Further, the GI50 was 4.69 µM (inactive) in the experiment on OVCAR-8; 2.42 µM (inactive) in the experiment on SF-295; 3.25 µM (inactive) in the experiment with SK-MEL-28; 29 µM (inactive) in the experiment with SK-MEL-2; 30.8 µM (inactive) with SNB-19; 0.281 µM (active) in the experiment on SNB-75. In the experiment with UACC-257, the GI50 is 4.9 µM (inactive).
